# Tests used:
# Assay in all cases: relative IC50 (inflection point of fitted viability curve, relative to fitted max inhibition); higher = less sensitive
# Conditions in all cases: 72 h
# [1] = tested on: normal primary NK cells, pool 1 (3 donors), resting (IL-2 0 ng/mL)
# Description: (§1)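 Drug sensitivity and resistance testing: 5 concentrations over a 10,000-fold range, 72 h at 37 °C, viability by CellTiter-Glo normalised to DMSO and benzethonium chloride controls. IC50 is the inflection point of a logistic fit (min fixed at 0, max fitted), so it is relative to the fitted maximal inhibition. Kept only where fitted max inhibition is at least 50%.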
# DERL-7 (IL-2 2.5 ng/mL) = tested on: DERL-7 (IL-2 2.5 ng/mL)
# Description: as §1
# KAI3 (IL-2 2.5 ng/mL) = tested on: KAI3 (IL-2 2.5 ng/mL)
# Description: as §1
# NK-92 (IL-2 2.5 ng/mL) = tested on: NK-92 (IL-2 2.5 ng/mL)
# Description: as §1
# NK-YS (IL-2 2.5 ng/mL) = tested on: NK-YS (IL-2 2.5 ng/mL)
# Description: as §1
# NKL (IL-2 2.5 ng/mL) = tested on: NKL (IL-2 2.5 ng/mL)
# Description: as §1
# YT (IL-2 2.5 ng/mL) = tested on: YT (IL-2 2.5 ng/mL)
# Description: as §1
# IMC-1 (IL-2 20 ng/mL) = tested on: IMC-1 (IL-2 20 ng/mL)
# Description: as §1
# KHYG-1 (IL-2 2.5 ng/mL) = tested on: KHYG-1 (IL-2 2.5 ng/mL)
# Description: as §1
# SNK-6 (IL-2 2.5 ng/mL) = tested on: SNK-6 (IL-2 2.5 ng/mL)
# Description: as §1
# [2] = tested on: normal primary NK cells, pool 1 (3 donors) (IL-2 2.5 ng/mL)
# Description: as §1
# [3] = tested on: normal primary NK cells, pool 3 (3 donors) (IL-2 2.5 ng/mL)
# Description: as §1
# [4] = tested on: normal primary NK cells, pool 2 (3 donors) (IL-2 2.5 ng/mL)
# Description: as §1
SMILES,relative IC50 [1] [nM],relative IC50 (DERL-7 (IL-2 2.5 ng/mL)) [nM],relative IC50 (KAI3 (IL-2 2.5 ng/mL)) [nM],relative IC50 (NK-92 (IL-2 2.5 ng/mL)) [nM],relative IC50 (NK-YS (IL-2 2.5 ng/mL)) [nM],relative IC50 (NKL (IL-2 2.5 ng/mL)) [nM],relative IC50 (YT (IL-2 2.5 ng/mL)) [nM],relative IC50 (IMC-1 (IL-2 20 ng/mL)) [nM],relative IC50 (KHYG-1 (IL-2 2.5 ng/mL)) [nM],relative IC50 (SNK-6 (IL-2 2.5 ng/mL)) [nM],relative IC50 [2] [nM],relative IC50 [3] [nM],relative IC50 [4] [nM]
C[C@@H]1COC(Nc2ccc3ncnc(Nc4ccc(OCc5nccs5)c(Cl)c4)c3c2)=N1 [Varlitinib],> 10000,–,–,–,–,–,–,–,–,–,–,–,–
CS(=O)(=O)N1CCc2c(-c3cnc(N)nc3)nc(N3CCOCC3)nc21,–,1000,384,316,940,451,1290,–,–,–,–,–,–
Cc1ccc(NC(=O)c2ccc(CN3CCN(C)CC3)cc2)cc1Nc1nccc(-c2cccnc2)n1 [Imatinib],1980,2190,3230,2230,2920,3600,2740,3400,3080,4290,1650,–,–
O=C(c1cc(Cc2n[nH]c(=O)c3ccccc23)ccc1F)N1CCN(C(=O)C2CC2)CC1 [Olaparib],–,–,1260,1560,1620,237,–,1610,2020,1670,–,–,–
CC(C)C(=O)Nc1ccc([N+](=O)[O-])c(C(F)(F)F)c1 [Flutamide],–,–,> 10000,–,–,–,–,–,> 10000,–,> 10000,–,–
C#Cc1cccc(Nc2ncnc3cc(OCCOC)c(OCCOC)cc23)c1 [Erlotinib],3360,–,1300,–,–,–,–,–,–,–,–,–,–
CN1CCN(CCOc2cc(OC3CCOCC3)c3c(Nc4c(Cl)ccc5c4OCO5)ncnc3c2)CC1 [Saracatinib],1620,1590,2110,1590,2260,–,1200,3200,3140,–,–,–,–
COc1cc2nccc(Oc3ccc(NC(=O)C4(C(=O)Nc5ccc(F)cc5)CC4)cc3)c2cc1OC [Cabozantinib],–,–,–,–,–,–,–,–,–,–,> 1000,–,–
O=C(NOC[C@H](O)CO)c1ccc(F)c(F)c1Nc1ccc(I)cc1F,–,10,–,> 1000,–,19.9,–,–,31.6,–,–,> 1000,–
Cc1cc(Nc2ncc(Cl)c(Nc3ccccc3S(=O)(=O)C(C)C)n2)c(OC(C)C)cc1C1CCNCC1 [Ceritinib],464,–,–,–,> 2500,> 2500,–,> 2500,–,–,616,–,–
CCC1=C[C@@H]2CN(C1)Cc1c([nH]c3ccccc13)[C@@](C(=O)OC)(c1cc3c(cc1OC)N(C)[C@H]1[C@@](O)(C(=O)OC)[C@H](OC(C)=O)[C@]4(CC)C=CCN5CC[C@]31[C@@H]54)C2 [Vinorelbine],1460,5.07,7.28,23.2,5.98,3.89,7.29,3.26,8.26,2.95,–,–,–
O=C(c1cccc(Cl)c1F)N1CCN(Cc2cccc(Nc3nccs3)n2)CC1 [MK-8745],–,376,–,–,203,–,–,709,–,204,–,> 2500,> 2500
COc1cc2c(N3CCN(C(=O)Nc4ccc(OC(C)C)cc4)CC3)ncnc2cc1OCCCN1CCCCC1 [Tandutinib],–,–,–,–,–,–,–,–,–,–,–,> 1000,–
CC(C)n1nc(-c2ccc3oc(N)nc3c2)c2c(N)ncnc21 [INK128],–,15.1,22.8,21.7,51,8.91,28.2,–,124,–,–,–,–
Nc1cccc2c1C(=O)N(C1CCC(=O)NC1=O)C2=O (centres undefined) [Pomalidomide],> 10000,–,> 10000,> 10000,> 10000,–,> 10000,> 10000,> 10000,–,–,–,–
CN(C)/N=N/c1[nH]cnc1C(N)=O [Dacarbazine],> 10000,> 10000,–,> 10000,–,–,2970,–,–,–,–,–,> 10000
CON(C)C(=O)N1N=C(c2cc(F)ccc2F)S[C@@]1(CCCN)c1ccccc1 [ARRY-520],> 1000,3.14,–,10.2,3.86,5.25,22.9,–,3.25,2.57,–,–,–

SMILES,relative IC50 [1] [nM],relative IC50 (DERL-7 (IL-2 2.5 ng/mL)) [nM],relative IC50 (KAI3 (IL-2 2.5 ng/mL)) [nM],relative IC50 (NK-92 (IL-2 2.5 ng/mL)) [nM],relative IC50 (NK-YS (IL-2 2.5 ng/mL)) [nM],relative IC50 (NKL (IL-2 2.5 ng/mL)) [nM],relative IC50 (YT (IL-2 2.5 ng/mL)) [nM],relative IC50 (IMC-1 (IL-2 20 ng/mL)) [nM],relative IC50 (KHYG-1 (IL-2 2.5 ng/mL)) [nM],relative IC50 (SNK-6 (IL-2 2.5 ng/mL)) [nM],relative IC50 [2] [nM],relative IC50 [3] [nM],relative IC50 [4] [nM]
CC(C)N(CCCNC(=O)Nc1ccc(C(C)(C)C)cc1)C[C@H]1O[C@@H](n2cc(Br)c3c(N)ncnc32)[C@H](O)[C@@H]1O [SGC0946],3660,–,2540,–,–,–,–,–,–,–,–,–,–
CC[C@H](CO)Nc1nc(NCc2ccccc2)c2ncn(C(C)C)c2n1 [Seliciclib],–,–,2380,–,–,–,1850,–,–,–,–,–,–
Cc1cn(-c2cc(NC(=O)c3ccc(C)c(Nc4nccc(-c5cccnc5)n4)c3)cc(C(F)(F)F)c2)cn1 [Nilotinib],–,–,–,–,–,869,–,–,–,–,–,> 10000,–
CNC(=O)c1cc(Oc2ccc(NC(=O)Nc3ccc(Cl)c(C(F)(F)F)c3)cc2)ccn1 [Sorafenib],–,–,–,–,–,> 1000,–,> 1000,–,–,> 1000,> 1000,> 1000
O=NN(CCCl)C(=O)NC1CCCCC1 [Lomustine],–,> 10000,–,> 10000,–,> 10000,–,> 10000,–,–,> 10000,> 10000,> 10000
CS(=O)(=O)c1ccc(C2=C(c3ccccc3)C(=O)OC2)cc1 [Rofecoxib],> 10000,–,–,–,–,–,–,–,–,–,–,> 10000,–
CC(C)(C#N)c1cc(Cn2cncn2)cc(C(C)(C)C#N)c1 [Anastrozole],–,–,–,–,> 10000,–,–,> 10000,> 10000,–,–,> 10000,> 10000
CNCc1ccc(-c2[nH]c3cc(F)cc4c3c2CCNC4=O)cc1 [Rucaparib],–,–,–,–,2000,438,–,–,–,–,–,–,–
C/C(=C\c1csc(C)n1)[C@@H]1C[C@@H]2O[C@]2(C)CCC[C@H](C)[C@H](O)[C@@H](C)C(=O)C(C)(C)[C@@H](O)CC(=O)O1 [Patupilone],–,2.74,6.77,6.8,11.7,12.4,8.42,3.36,15.2,2.61,–,–,–
O=C1c2c(O)ccc(O)c2C(=O)c2c(NCCNCCO)ccc(NCCNCCO)c21 [Mitoxantrone],151,80.5,91,–,114,32.2,–,170,158,34.8,322,–,185
c1ccc([C@H]2CN3CCSC3=N2)cc1 [Levamisole],–,–,> 10000,> 10000,> 10000,–,> 10000,–,> 10000,–,–,> 10000,> 10000
COc1cc2nccc(Oc3ccc(NC(=O)NC4CC4)c(Cl)c3)c2cc1C(N)=O [Lenvatinib],–,–,–,–,–,–,–,–,–,> 2500,–,–,> 2500
Clc1ccccc1C(c1ccccc1)(c1ccccc1)n1cccn1 [TRAM-34],> 1000,–,–,–,–,–,–,–,–,–,–,–,–
CN(C[C@@H]1COCCO1)S(=O)(=O)Nc1ccc2ccc3ncc(-c4cnn(C)c4)cc3c(=O)c2c1 [MK-2461],–,1770,–,–,–,–,–,–,–,–,–,> 10000,–
CC[C@@H]1C(=O)N(C)c2cnc(Nc3ccc(C(=O)N[C@H]4CC[C@H](N5CCN(CC6CC6)CC5)CC4)cc3OC)nc2N1C(C)C [Volasertib],–,19.6,26.5,12.6,24.3,36.2,29,30,28.3,6.44,–,–,–
CCN(CC)CCCC(C)Nc1ccnc2cc(Cl)ccc12 (centres undefined) [Chloroquine],–,–,–,–,–,–,–,33400,–,–,–,9060,14300
C/C(=C\c1csc(C)n1)[C@@H]1C[C@@H]2O[C@]2(C)CCC[C@H](C)[C@H](O)[C@@H](C)C(=O)C(C)(C)[C@@H](O)CC(=O)N1 [Ixabepilone],> 1000,335,383,398,348,357,308,360,301,348,> 1000,–,–

# Source: the supplement of paper PMC5908809
